# Source: PubChem BioAssay AID602470 (Southern Research Specialized Biocontainment Screening …, 2012)
# Calls of active or inactive are those of the source. How the calls were made is not given here.
# Tests used:
# [1] = anti-RSV activity in infected cells – counter-screen for VEEV inhibitor project, dose response (AID 602470); settings: RSV-infected cells, antiviral CPE inhibition; at 12.5 µM (top of the series)
# [2] = system: RSV-infected cells, antiviral CPE inhibition; test: as above
Compound,inhibition [1],IC50 [2] [nM]
CN1CCN(Cc2nc3ccc([N+](=O)[O-])cc3c(=O)n2-c2ccccc2F)CC1,31.6% (inactive),
CCN1CCN(Cc2nc3ccc([N+](=O)[O-])cc3c(=O)n2-c2ccccc2F)CC1,38.2% (inactive),
CN(C(=O)Cc1cccs1)c1nc2c(s1)CCCC2,,680
